Entries after “also recorded” stand apart in the source; their conditions may differ.
Columns and labels:
NIH Swiss mice [1] = test: PTZ seizure threshold test (intravenous PTZ infusion); format: in vivo, mouse; settings: for anticonvulsant activity in the PTZ seizure threshold test (seizure threshold): 50 mg/kg (5 mg/ml) and 100 mg/kg (10 mg/ml)
Method: (§1) Animals. Male NIH Swiss mice (22-30 g) were housed four per cage. Animals were kept in a vivarium under controlled laboratory conditions (temperature, 22-26° C.; humidity, 40-50%) with an artificial 12-h light/dark cycle and free access to food and water. Animals were allowed to acclimate to the vivarium for ≥5 days. The experiments were performed during the light phase of the light/dark cycle after a ≥30-min period of acclimation to the experimental room. Animals were maintained in facilities fully accredited by the Association for Assessment and Accreditation of Laboratory Animal Care, and all studies were performed under protocols approved by the University of California, Davis, Institutional Animal Care and Use Committee the Animal Care and Use in strict compliance with the Guide for the Care and Use of Laboratory Animals of the National Research Council (National Academy Press, Washington, D.C.; on the internet at nap.edu/readingroom/books/labrats/).
(§2) Test substances and drug administration. Solutions of allopreganolone (SAFC Pharma, Madison, Wis., U.S.A.) were made in miglyol (Neobee M5®, Spectrum Chemicals, Gardena, Calif.), canola oil (ConAgra Foods, Omaha, Nebr.) or peanut oil (Sigma-Aldrich, St. Louis, Mo.). The convulsant agent pentylenetetrazol (PTZ) (Sigma-Aldrich, St. Louis, Mo.) was dissolved in saline immediately before use and administered intravenously (i.v.). For the PTZ threshold test, allopregnanolone solutions were administered orally (p.o.) 30 min, 1 hr and 2 hr before PTZ infusion, in a volume equaling 10 ml/kg. For the 6-Hz seizure test, solutions of allopregnanolone in canola oil were administered in a volume equaling 20 ml/kg.
PTZ seizure threshold test. The threshold for various behavioral seizure stages induced by the GABA receptor antagonist PTZ, was determined by infusing PTZ via a 27-gauge, 0.75-inch “butterfly” needle inserted into the lateral tail vein. The needle was secured to the tail vein by a narrow piece of adhesive tape, and the animal was permitted to move freely inside an inverted plastic container with free aeration from the top. PTZ (10 mg/ml) were infused at a constant rate of 0.5 ml/min using a 1-ml syringe (BD Biosciences, Franklin Lakes, N.J.) mounted on a Harvard infusion pump (Harvard Apparatus Inc., Holliston, Mass.). The syringe was connected to the needle by polyethylene tubing. The infusion was stopped at 3 min or at the onset of tonic extension, whichever occurred first. The thresholds to the onset of tonic hindlimb extension were determined by measuring the latency from the start of convulsant infusion to the onset of all the response. The threshold value (milligrams per kilogram) was determined according to the following formula: (infusion duration [seconds]×infusion rate [milliliters per minute]×convulsant drug concentration [milligrams per milliliter]×1000)/(60 s×weight of mouse [grams]).

NIH Swiss mice [2] = test: 6-Hz seizure test; format: in vivo, mouse; settings: dissolved in canola oil (10 mg/ml), 200 mg/kg, 32 mA for 3 s
Method: as §1
Test substances and drug administration. Solutions of allopreganolone (SAFC Pharma, Madison, Wis., U.S.A.) were made in miglyol (Neobee M5®, Spectrum Chemicals, Gardena, Calif.), canola oil (ConAgra Foods, Omaha, Nebr.) or peanut oil (Sigma-Aldrich, St. Louis, Mo.). […]
6-Hz seizure test. […] Animals were scored as protected or not protected. […]

NIH Swiss mice [3] = test: PTZ seizure challenge (80 mg/kg PTZ s.c.); format: in vivo, mouse
Method: (§3) NIH Swiss mice were fasted 2 hours prior to experiment participation. Allopregnanolone (ALP) was suspended in vehicle (Tween 80 or canola oil). The time point of maximal effect of ALP was established by gavaging ALP and scoring relevant behavioral parameters outlined in the Irwin Test. See, Sylvain Roux, et al., Current Protocols in Pharmacology, Unit Number: UNIT 10.10, DOI: 10.1002/0471141755.ph1010s27 Online Posting Date: January, 2005. Lethality, convulsion, tremor, Straub, abnormal gait, fear, sedation, reactivity to touch, loss of traction, loss of righting reflex were measured.
Anticonvulsant potential of ALP was determined with PTZ seizure challenge. Oral gavage various ALP concentrations at 50 μl/10 g body weight, t=−45 min or t=−90 min, 80 mg/kg PTZ s.c. at t=0. Observe 30 min for seizure protection (absence of clonic spasms).

NIH Swiss mice [4] = test: Irwin Test behavioral scoring (sedation); format: in vivo, mouse; settings: 250 mg/kg in canola oil, oral
Method: as §3

[5] = Central nervous system effects of allopregnanolone in aqueous hydroxypropyl-beta-cyclodextrin solution; format: in vivo
[6] = Dissolution of allopregnanolone in oils; format: physicochemical; settings: three oils: miglyol, canola oil, peanut oil
Method: as §2

[7] = oral delivery in canola oil (FIG. 4)

CC(=O)[C@H]1CCC2C3CC[C@H]4C[C@H](O)CC[C@]4(C)C3CC[C@@]21C (stereo in doubt) [allopregnanolone, 1-(3-Hydroxy-10,13-dimethyl-2,3,4,5,6,7,8,9,11,12,14,15,16,17-tetradecahydro-1H-cyclopenta[a]phenanthren-17-yl)ethanone]
duration of anti-seizure activity (NIH Swiss mice [1]; dissolved in canola oil and peanut oil, oral route): long-lasting anti-seizure activity | anti-seizure activity 120 to 240 min after administration (NIH Swiss mice [1]; dissolved in canola oil or peanut oil, oral, 120 to 240 min after administration, in some cases): activity was also present | anti-seizure activity 30 min after administration (NIH Swiss mice [1]; dissolved in canola oil or peanut oil, oral, 30 min after administration): no or only minimal activity | anti-seizure activity 60 min after administration (NIH Swiss mice [1]; dissolved in canola oil or peanut oil, oral, 60 min after administration): strong activity | anticonvulsant activity in the PTZ seizure threshold test (seizure threshold) (NIH Swiss mice [1]; dissolved in canola oil, orally administered): activity was obtained; also recorded: time-dependent increase in seizure threshold | anticonvulsant activity in the PTZ seizure threshold test (NIH Swiss mice [1]; dissolved in miglyol, orally administered, 100 mg/kg): no bioactivity; also recorded: no activity; also recorded: inactive | anticonvulsant activity in the PTZ seizure threshold test (seizure threshold) (NIH Swiss mice [1]; dissolved in peanut oil, orally administered): activity was obtained; also recorded: time-dependent increase in seizure threshold | activity in the 6-Hz seizure test (NIH Swiss mice [2]): had activity | anticonvulsant activity in the pentylenetetrazol seizure test (NIH Swiss mice [3]; 250 mg/kg in canola oil, oral): anticonvulsant activity | effective threshold dose (NIH Swiss mice [3]; [7]): 25 to 75 mg/kg | oral bioavailability (NIH Swiss mice [3]; [7]): markedly enhances | sedation (NIH Swiss mice [4]): profound sedation | central nervous system effects ([5]; high doses administered orally in aqueous solution of hydroxypropyl-beta-cyclodextrin): failed to produce central nervous system effects | central nervous system effects ([5]; parenteral administration as aqueous solution in hydroxypropyl-beta-cyclodextrin): readily causes central nervous system effects | dissolution in oils [6]: readily dissolve
